Test results reported in the supplement of paper PMC11061612.

What was measured:
Test in all cases: Bliss excess, mean over the matrix (fraction); higher = more synergy
[1] = test system: SK-N-SH (Neuroblastoma)
Procedure, shortened: (§1)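 Cell lines grown in DMEM/F12 or RPMI with 10% FBS were plated in 1536-well plates and held 24 hours at 37°C, 5% CO2 before 72 hours of exposure to two-drug dose matrices, with DMSO typically at 0.2%. CellTiter-Glo 2.0 luminescence gave viability, which was converted to inhibition. Vehicle wells were set to 0 and blank wells to 1. Combination Emax is the second-highest inhibition in the matrix, and Bliss excess is the observed combination effect minus the expected EA + EB − EA·EB, where EA and EB are the single-agent effects.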

[2] = test system: NCI-H596 (Other Solid Carcinomas)
Procedure, shortened: as §1

[3] = test system: BxPC-3 (Pancreatic Carcinoma)
Procedure, shortened: as §1

[4] = test system: NCI-H1341 (Small Cell Lung Carcinoma)
Procedure, shortened: as §1

[5] = test system: WM35 (Melanoma)
Procedure, shortened: as §1

[6] = test system: Raji (Burkitt's Lymphoma)
Procedure, shortened: as §1

[7] = test system: NCI-H3118 (Head and Neck Carcinoma)
Procedure, shortened: as §1

[8] = test system: PL4 (Pancreatic Carcinoma)
Procedure, shortened: as §1

[9] = test system: SCC-4 (Oral Cavity Carcinoma)
Procedure, shortened: as §1

[10] = test system: IA-LM (Non-Small Cell Lung Carcinoma)
Procedure, shortened: as §1

[11] = test system: DBTRG-05MG (Glioblastoma)
Procedure, shortened: as §1

[12] = test system: CL-11 (Colorectal Carcinoma)
Procedure, shortened: as §1

[13] = test system: P32-ISH (Burkitt's Lymphoma)
Procedure, shortened: as §1

[14] = test system: SNU-423 (Hepatocellular Carcinoma)
Procedure, shortened: as §1

[15] = test system: MONO-MAC-6 (Acute Myeloid Leukemia)
Procedure, shortened: as §1

[16] = test system: SNU-C2B (Colorectal Carcinoma)
Procedure, shortened: as §1

[17] = test system: AM-38 (Glioblastoma)
Procedure, shortened: as §1

[18] = test system: TUR (Acute Myeloid Leukemia)
Procedure, shortened: as §1

[19] = test system: CPC-N (Small Cell Lung Carcinoma)
Procedure, shortened: as §1

[20] = test system: PA-TU-8988T (Pancreatic Carcinoma)
Procedure, shortened: as §1

Row | SMILES | Bliss excess [1] | Bliss excess [2] | Bliss excess [3] | Bliss excess [4] | Bliss excess [5] | Bliss excess [6] | Bliss excess [7] | Bliss excess [8] | Bliss excess [9] | Bliss excess [10] | Bliss excess [11] | Bliss excess [12] | Bliss excess [13] | Bliss excess [14] | Bliss excess [15] | Bliss excess [16] | Bliss excess [17] | Bliss excess [18] | Bliss excess [19] | Bliss excess [20]
1 | CN(C)CCCOc1ccc(-c2ccc3ncc4c(c3c2)n(C2CCOCC2)c(=O)n4C)cn1 [AZD0156] + C=CCn1c(=O)c2cnc(Nc3ccc(N4CCN(C)CC4)cc3)nc2n1-c1cccc(C(C)(C)O)n1 [AZD1775] (first compound max 1 µM, partner max 1 µM) | -0.0533 | 0.0029 | -0.0506 | -0.0201 | -0.0166 | -0.0278 | -0.0933 | -0.0586 | -0.0393 | -0.0068 | -0.0489 | -0.0547 | -0.011 | -0.0554 | 0.0017 | -0.0328 | 0.0248 | 0.0088 | -0.0025 | -0.0504
2 | CN(C)CCCOc1ccc(-c2ccc3ncc4c(c3c2)n(C2CCOCC2)c(=O)n4C)cn1 [AZD0156] + CCN(CCO)CCCOc1ccc2c(Nc3cc(CC(=O)Nc4cccc(F)c4)[nH]n3)ncnc2c1 [AZD2811] (first compound max 1 µM, 7x7, partner max 1 µM) | -0.0133 | -0.005 | -0.0212 | 0.005 | -0.0426 | 0.0082 | -0.0316 | 0.0286 | -0.0668 | -0.0326 | -0.0453 | -0.0288 | -0.0042 | -0.0192 | 0.053 | -0.0227 | 0.0165 | 0.0563 | 0.0049 | 0.0079
3 | CN(C)CCCOc1ccc(-c2ccc3ncc4c(c3c2)n(C2CCOCC2)c(=O)n4C)cn1 [AZD0156] + C[C@@H]1COCCN1C2=NC(=NC(=C2)C3(CC3)[S@](=N)(=O)C)C4=C5C=CNC5=NC=C4 [AZD6738] (first compound max 1 µM, 7x7, partner max 10 µM) | -0.115 | -0.009 | -0.0083 | 0.0309 | 0.0618 | 0.0164 | -0.0235 | 0.0862 | -0.0071 | -0.0241 | -0.022 | -0.0265 | 0.0435 | -0.0414 | -0.0253 | 0.0183 | 0.0677 | 0.0261 | 0.0316 | 0.0423
4 | CN(C)CCCOc1ccc(-c2ccc3ncc4c(c3c2)n(C2CCOCC2)c(=O)n4C)cn1 [AZD0156] + O=C(c1cc(Cc2n[nH]c(=O)c3ccccc23)ccc1F)N1CCN(C(=O)C2CC2)CC1 [Olaparib] (first compound max 3 µM, partner max 3 µM) | -0.0043 | 0.0282 | -0.0342 | -0.0165 | -0.0272 | 0.156 | 0.0479 | 0.018 | 0.0057 | 0.0017 | -0.0207 | 0.0647 | 0.211 | 0.0634 | 0.102 | 0.0054 | 0.167 | 0.0469 | 0.0237 | 0.0235
5 | C=CCn1c(=O)c2cnc(Nc3ccc(N4CCN(C)CC4)cc3)nc2n1-c1cccc(C(C)(C)O)n1 [AZD1775] + C1CN(CCC1(C(=O)N[C@@H](CCO)C2=CC=C(C=C2)Cl)N)C3=NC=NC4=C3C=CN4 [Capivasertib] (first compound max 3 µM, partner max 3 µM) | -0.0626 | -0.0987 | -0.0227 | -0.0538 |  | 0.0011 | -0.0253 | -0.0549 | -0.0273 | -0.0348 | 0.005 | -0.0499 | 0.0417 | -0.0333 | 0.031 | -0.0573 | -0.0247 | 0.0434 | -0.0415 | -0.0264
6 | C=CCn1c(=O)c2cnc(Nc3ccc(N4CCN(C)CC4)cc3)nc2n1-c1cccc(C(C)(C)O)n1 [AZD1775] + C[C@@H]1COCCN1C2=NC(=NC(=C2)C3(CC3)[S@](=N)(=O)C)C4=C5C=CNC5=NC=C4 [AZD6738] (first compound max 1 µM, partner max 10 µM) | -0.0285 | 0.0323 | -0.0161 | 0.0723 | 0.0626 | 0.109 | 0.0218 | 0.0501 | -0.0248 | 0.0477 | -0.0076 | -0.0047 | 0.0304 | -0.0095 | 0.0178 | -0.0212 | 0.0618 | 0.0657 | 0.0072 | 0.0222
7 | C=CCn1c(=O)c2cnc(Nc3ccc(N4CCN(C)CC4)cc3)nc2n1-c1cccc(C(C)(C)O)n1 [AZD1775] + O=C(c1cc(Cc2n[nH]c(=O)c3ccccc23)ccc1F)N1CCN(C(=O)C2CC2)CC1 [Olaparib] (first compound max 1 µM, partner max 10 µM) | -0.0947 | -0.0963 | -0.0266 | -0.0236 | -0.0146 | -0.016 | -0.0301 | 0.0037 | -0.0341 | -0.0513 | -0.0747 | -0.0099 | -0.0323 | -0.0577 | 0.0004 | 0.0056 | -0.0018 | 0.0029 | 0.0183 | -0.0094
